We go through 2 substances from publication PMC8448819, “The Arabidopsis MIK2 receptor elicits immunity by sensing a conserved signature from phytocytokines and microbes” (Nature Communications, 2021).

In assay [1] the test system is Arabidopsis WT (Col-0) seedlings. The assay is classed as in vivo, Arabidopsis thaliana.
Assay [2] concerns mik2-1 and mik2-2 mutant seedlings. The assay is classed as in vivo, Arabidopsis thaliana. The settings on record: for Root length (Fig. 3d) / Root length (Fig. 3b) / Root length (Fig. 3e): individual values, one per line.
The test system of assay [3] is Arabidopsis WT seedling roots. The experiment in a line: Microscopy of root browning and root meristems, WT. It counts as in vivo, Arabidopsis thaliana.
The subject of a further assay is Arabidopsis leaf disks. The experiment in a line: Ethylene production. The assay is classed as in vivo, Arabidopsis thaliana. The settings on record: Fig. 2j, leaf disks of 4-week-old plants, peptides at 1 µM, 23 °C, 4 h, GC-FID. As for the experimental part:
Twelve leaves of 4-week-old plants grown on soil were excised into leaf disks of 0.25 cm^2, followed by overnight incubation in a 25 mL glass vial with 2 mL of ddH2O for recovery. Then, ddH2O was replaced by 1 mL of peptides at 1 µM, and the vials were capped immediately with a rubber stopper and incubated at 23 °C with gentle agitation for 4 h. One mL of the vial headspace was injected into a TRACE^TM 1310 Gas Chromatograph (Thermo Fisher Scientific) with FID supported by Chromeleon 7 for quantitation.

Assay [4] deals with MYB51 promoter, pMYB51::GUS seedling roots. The experiment in a line: Histochemical GUS staining, pMYB51::GUS. The assay is classed as in vivo, Arabidopsis thaliana. To be noted: pMYB51::GUS seedlings, 1 µM, 3 h. From the text:
Stained samples were fixed with a 3:1 ethanol:acetic acid solution overnight and cleared by lactic acid and photographed with the Olympus SZX10 stereoscopic microscope equipped with DP27 camera.

In assay [5] the test system is RLK7^ECD-MIK2^TK/rlk7 and RLK7/rlk7 transgenic seedlings. The experiment in a line: Root growth assay, rlk7, RLK7/rlk7 and RLK7^ECD-MIK2^TK/rlk7 seedlings. The assay is classed as in vivo, Arabidopsis thaliana. From the text: The BAK1 (AT4G33430), SERK4 (AT2G13790), BIK1 (AT2G39660), and MIK2 (AT4G08850) coding sequences (CDSs) were amplified by PCR from Col-0 cDNA using the primers containing BamHI at the 5′ end and StuI at the 3′ end. The PCR products were digested by BamHI and StuI, followed by ligation into the pHBT-FLAG or pHBT-HA vector to generate pHBT-35S::BAK1-FLAG, pHBT-35S::SERK4-FLAG, pHBT-35S::BIK1-HA, pHBT-35S::MIK2-HA, and pHBT-35S::MIK2-GFP constructs[24],[41],[62]. MIK2^ECD (residues 1–707) and BAK1^ECD (residues 1–220) were amplified by PCR from Col-0 cDNA and cloned into pFastBac-1 vector with a C-terminal 6× HIS tag[25],[62]. The fusion protein vectors carrying MIK2^ECD or BAK1^ECD were used for insect cell expression. To obtain the binary vector pCAMBIA1300-35S::RLK7, a 2907-bp RLK7 CDS was PCR-amplified from WT cDNA using gene-specific primers with KpnI and SalI at the 5′ and 3′ ends, respectively, followed by KpnI and SalI digestion and ligation into the pCAMBIA1300 vector. To generate the binary vector pCAMBIA1300 carrying the RLK7^ECD-MIK2^TK chimeric receptor gene, an 1824-bp fragment encoding RLK7^ECD was PCR-amplified from WT cDNA using a gene-specific forward primer with KpnI at the 5′ end and a gene-specific reverse primer with 8-bp overlapping sequence from the 5′ end of MIK2^TK, and a 1011-bp fragment encoding MIK2^TK using a gene-specific forward primer with 8-bp overlapping sequence from the 3′ end of RLK7 ^ECD and a gene-specific reverse primer with SalI at the 5′ end. RLK7^ECD was fused with MIK2^TK and inserted into the pUC19 vector using in-fusion recombinant enzymes (Clontech). […]
Cold stratified seeds were surface-sterilized with 70% (v/v) ethanol for 5 min and were sown on ½MS plates with or without peptides at indicated concentrations. Ten-day-old seedlings grown on plates vertically in a growth chamber were photographed, and the root lengths of seedlings were measured using Image J (http://rsb.info.nih.gov/ij/).

For a further assay, the system named is Arabidopsis. The settings on record: cited from earlier work. From the text: Some plant LRR-RKs are pattern recognition receptors (PRRs) that recognize pathogen- or microbe-associated molecular patterns (PAMPs or MAMPs) or damage-associated molecular patterns (DAMPs) and initiate pattern-triggered immunity (PTI)[10]-[13]. […] Despite the differ ... || Plant plasma membrane-resident RKs perceive diverse exogenous and endogenous signals via the extracellular domain and activate intracellular responses through the cytoplasmic kinase domain[1]-[3]. The chimeric receptors with the swapped extracellular and intracellular domains between different RKs have been used to study the specificity of signal perception and signaling activation[48]-[52]. The extracellular domains of RKs determine the ligand-binding specificity[50],[51],[53]. The intracellular kinase domains of different RKs also trigger specific responses. […] It remains unknown why plants have evolved so many SCOOPs and the functional specificity for different SCOOPs. […] SCOOP12, the most studied SCOOP, is highly expressed in roots (Fig. 2b), and was indicated to regulate ro ...

Several values for one entry are separate records, joined by “and”; a condition that tells them apart may be missing. Equal entries are not always repeated. Where two headings read alike, the source gives them in different places.

Take “PNGDIFTGPSGSGHGGGR [SCOOP10B, synthesized SCOOP peptide corresponding to the SxS motif]”: the “root growth retardation, concentration series, WT” value in assay [1] (1 to 100 nM SCOOP10^B) is “more pronounced with the increased concentrations of SCOOP10^B from 1 to 100 nM”. The “concentration at which still active” value in assay [1] (in vivo) came to 1 nM. Besides, the “root growth inhibition” value in assay [1] (in vivo) is “inhibited root growth to various degrees, with SCOOP10^B and 13 being the most active”. For the same substance, the “root growth retardation, concentration series, mik2-1” value in assay [2] (1 to 100 nM SCOOP10^B) is given as “completely abolished in mik2-1”. The “Root length (Fig. 3d)” value was 32.99 and 31.78 and 33.56 and 34.62 and 30.06 and 35.81 and 29.29 in assay [2] (mik2-1, 1 nM); 32.32 and 29.96 and 32.75 and 34.52 and 30.66 and 29.77 and 30.84 and 33.97 in assay [2] (mik2-1, 10 nM); 29.63 and 33.44 and 32.76 and 35.81 and 32.02 and 28.87 and 34.13 and 30.25 in assay [2] (mik2-1, 100 nM). Also, the “Root length (Fig. 3b)” value in assay [2] (mik2-1) is 25.833 and 26.302 and 24.889 and 27.342 and 26.636 and 27.534 and 28.728 and 25.164 and 27.761; in assay [2] (mik2-2), 28.386 and 27.709 and 30.155 and 29.447 and 28.883 and 28.332 and 29.63 and 28.607 and 26.83. In addition, the “Root length (Fig. 3e)” value in assay [2] (mik2-1) is 22.911 and 21.027 and 23.034 and 25.697 and 26.332 and 26.187 and 22.644 and 27.144 and 23.211 and 23.187; in assay [2] (mik2-2), 22.343 and 22.532 and 23.158 and 21.859 and 27.286 and 27.619 and 26.253 and 24.148 and 29.659 and 25.362. For the same substance, in assay [2] (mik2-1 and mik2-2, 10-day-old seedlings, 1 µM peptide), the “root growth inhibition in mik2” value is listed as “insensitive to the treatment of SCOOP10^B”. Moreover, the “root browning” value in assay [3] (WT seedlings, prolonged treatment) is reported as “led to brown roots”. Besides, the “root meristem distortion” value in assay [3] (WT, 5-day-old seedlings, 1 µM, 48 h, PI staining) is given as “distorted root meristems”. Besides, the ethylene production with Arabidopsis leaf disks (repeat 1) was determined as 2.0449 ppm; with Arabidopsis leaf disks (repeat 2) it was 1.4942 ppm; in the assay on Arabidopsis leaf disks (repeat 3), 1.8726 ppm. For the same substance, in assay [4], the “MYB51 promoter activity in roots” value was “induced the promoter activities of MYB51”.
Take “RLASGP(OH)SPRGRGH [PIP1, secreted peptide, ligand of RLK7]”: the “root growth retardation” value in assay [5] (RLK7/rlk7 and RLK7^ECD-MIK2^TK/rlk7, 1 µM PIP1) is listed as “restored the sensitivity to PIP1 treatment exhibiting root growth retardation”. In assay [5] (RLK7^ECD-MIK2^TK/rlk7), the “brown roots and darkened root-hypocotyl junctions” value is “brown roots and darkened root-hypocotyl junctions”. Further, the “root growth retardation vs RLK7/rlk7” value in assay [5] (RLK7^ECD-MIK2^TK/rlk7, 1 µM PIP1) was “more substantial root growth retardation”. Also, the “BIK1 dependence of responses” value with Arabidopsis was “BIK1-independent”.
